# Key:
# Rj: Wistar (Han) rats = test: EEG sleep-wake cycle in conscious freely-moving rats; assay type: in vivo, rat
# Experimental: They were supplied by Elevage Janvier, 53940 Le Genest-Saint-Isle, France.
# Implanted animals were individually placed in transparent perspex boxes in a soundproof, light-controlled, ventilated cabin and were habituated to the recording environment for at least 10 days. Drug-free baseline EEG was recorded for 23 hours. Then the rats were administered vehicle and the EEG recorded for another 23 hours. The next day, rats were treated with one of the 4 amphetamine forms first at the dose of 3 mg/kg, than at the dose of 1 mg/kg. The following variables were measured: latency to the appearance of stable slow-wave sleep (SWS), latency to the first appearance of rapid-eye-movement sleep (REM), the number of REM sleep phases, and the distribution percentage of wake/SWS/REM (sleep architecture).
# Test sessions following treatment were individually compared with corresponding control sessions. As no differences were apparent after vehicle, the 2 control sessions with and without vehicle, were averaged.
# [1] = tested on: spontaneously hypertensive rat (SHR); test: Behavioural study, multiple Random-Interval/Extinction operant schedule in the SHR model of ADHD; assay type: in vivo; conditions: for General activity level (total number of lever presses), overactivity / Impulsiveness (number of responses with short IRTs): d 0.5-1.5 mg/kg, l 1.0-3.0 mg/kg i.p.; for Sustained attention following transformation: transformed data, saline as baseline, FIG. 6
# Source text: (§1) Subjects: A total number of 32 male rats, 16 spontaneously hypertensive (SHR) and 16 Wistar/Kyoto (WKY), participated in final part of this study. (Initially, 8 extra rats, 6 SHRs and 2 controls, were trained with a view to select two groups of 16 with the greatest difference in baseline measures. However, there was little difference when comparing all the rats with a selected subgroup—they both separated well.) At the start of testing, the rats were ˜5 wk old and experimentally naive. Young rats were required, as ADHD primarily is a child and adolescent disorder. The SHRs were obtained from Charles River Italy (SHR/Cr1 Ico) and the WKYs from Charles River France (WKY/Nico) as other breeding centers were unable to deliver rats at the time we needed them. At the University of Oslo, the rats were housed individually in 41×25×25 (height) cm transparent cages and had free access to food (BK Standard RM 1 from Beekay Feeds Universal Ltd.).
# (§2) The rats had access to water at all times during the habituation period. However, after completing the habituation period, the rats were deprived of water for 21 hr a day. The rats received water as reinforcers during the experimental session and had free access to water for 90 min after the experimental session. The temperature in the housing area was ˜20° C. The light in the housing area was on from 0700 to 1900 hours. The behavioral training took place between 0900 and 1230 hours seven days a week.
# (§3) Behavioral apparatus: Sixteen Campden Instruments operant chambers were used in the study. The animal working space in eight of the chambers is 25×25×30 (height) cm and 25×25×20 (height) cm in the other eight chambers. The 2.8-W house light and a fan producing a low masking noise were on during the entire experimental session.
# (§4) During training sessions, either one or two retractable levers were used. A 2.8-W cue light was located above each lever. The rats' response consisted of pressing one of the levers with a dead weight of at least 3 g to activate a microswitch. The reinforcers (0.01 ml tap water) were delivered by a liquid dipper located in a small recessed cubicle with a 2.8-W cue light lit when a reinforcer is presented. A 7×5 cm transparent plastic lid separated the cubicle from the rat's working space. The rat could easily open the lid with a light push with the nose or paw. Each chamber was ventilated and placed in a sound-resistant outer housing. A computer and an online system (SPIDER, Paul Fray, Ltd., UK) recorded the behavior and scheduled reinforcers (drops of water).
# Before the initiation of the study, the rats were randomized and balanced into two groups. Each group of rats consisted of an equal number of SHRs and WKYs. Each rat was assigned to a specific chamber, which it occupied during all sessions. The rat was returned to its living cage after each session. All animals were run seven days a week.
# Response acquisition: The training period started with a single 30-min habituation session. During the habituation session, the lid between the working space and the reinforcement cubicle was kept open. No lever was present and no cue light above any lever was lit. The house light was on. From this time on the rats were deprived of water for 21 hr a day; this is a moderate, but sufficient deprivation for motivating the animal.
# The habituation session was followed by two 30-min magazine training sessions. The lid was taped open, no levers were present, and the house light was on, but the cue lights above the levers were not lit. The computer delivered water on the average every 10s independent of the rat's behavior (a variable-time schedule).
# In the next two sessions, the rat was trained to open the lid to gain access to the water. The lid was not taped open, no levers were present and the lights above the levers were not activated. The house light was on. Each lid opening was followed by a presentation of a single drop of water. […]
# Rats = test: Weight gain, food and water intake in rats with 3 hours per day access; assay type: in vivo, rat; conditions: for Body weight gain: once a day dosing, measured every day; for Water intake: once a day, one hour before 3 h access to food and water; for Food intake: over the 3 hours of access each day, 10 day period
# Experimental: Rats were given access to food and water for 3 hours per day. The acclimation period was 10 days. Thereafter, vehicle or doses of l- or d-amphetamine sulphate were administered to the rats once a day one hour before access to food and water. Body weight was measured every day (FIG. 11) before the drug administration and then food intake (FIG. 12) and water intake were measured over the 3 hours each day when the rats had access to the same.
# Wistar Kyoto Rat (WKY) = test: Behavioural study, multiple Random-Interval/Extinction operant schedule in WKY controls; assay type: in vivo; conditions: single isomers; for General activity level: FIG. 3; for Impulsiveness: FIG. 4
# Source text: as §1, §2, §3, §4
# Before the initiation of the study, the rats were randomized and balanced into two groups. Each group of rats consisted of an equal number of SHRs and WKYs. Each rat was assigned to a specific chamber, which it occupied during all sessions. […]
# [2] = tested on: noradrenaline (NA) release, frontal cortex; test: Basal release of tritiated noradrenaline from rat brain slices in vitro (Brandel system); assay type: cell-based
# Experimental: The DA and NA release is measured in separate brain areas, i.e., in striatum for DA release (evaluating tritiated dopamine) and in the frontal cortex for NA release (evaluating tritiated noradrenaline), using a Brandel system. The brain slices are loaded with the tritiated monoamine (dopamine or noradrenaline) and then superfused to produce basal neurotransmitter release. The slices are also subjected to 2 short periods of electrical stimulation to effect stimulated transmitter release.
# [3] = between 4 and 8 h after administration, 3 mg/kg
compound,measurement,setting,value
CC(N)Cc1ccccc1.NC(CC(=O)O)C(=O)O (racemic) [dl-amphetamine aspartate],REM sleep,"Rj: Wistar (Han) rats; between 4 and 8 h after administration, 1 mg/kg",reduced
C[C@H](N)Cc1ccccc1 [d-amphetamine],"General activity level (total number of lever presses), overactivity",[1]; FIG. 3,reduced
same,"General activity level (total number of lever presses), overactivity","[1]; FIG. 3, listed as D-amphetamine",more than l-amphetamine
same,Impulsiveness (number of responses with short IRTs),[1]; FIG. 4,reduced
same,Impulsiveness (number of responses with short IRTs),"[1]; FIG. 4, listed as D-amphetamine",more than l-amphetamine
same,Sustained attention following transformation,[1],disappeared
same,Body weight gain,Rats,dose-related reductions
same,Water intake,Rats,little effect
same,Food intake,Rats,decreased food intake over the measured 10 day period
same,Delay to onset of REM sleep compared with the other dose,Rj: Wistar (Han) rats; 3 mg/kg,tended to be longer
same,Effects on SWS and wake compared with the l-isomer,"Rj: Wistar (Han) rats; 3 mg/kg, first 4 h of recording",significantly greater than the l-isomer
same,SWS,Rj: Wistar (Han) rats; [3],reduced
same,Waking,Rj: Wistar (Han) rats; [3],increased
same,Duration of effects on the sleep-wake cycle,"Rj: Wistar (Han) rats; rat, in vivo",longer lasting
same,Overall potency on the sleep-wake cycle,"Rj: Wistar (Han) rats; rat, in vivo",more potent than l-amphetamine
same,General activity level,Wistar Kyoto Rat (WKY),unaffected
same,Impulsiveness,Wistar Kyoto Rat (WKY),unaffected
C[C@@H](N)Cc1ccccc1 [l-amphetamine],"Sustained attention, performance versus saline","[1]; 2 mg/kg, T-test with dependent samples, p <0.01",performed better
same,"General activity level (total number of lever presses), overactivity",[1]; FIG. 3,reduced
same,Impulsiveness (number of responses with short IRTs),[1]; FIG. 4,less efficient than d-amphetamine
same,Sustained attention (percentage of correct lever choices),"[1]; low doses, untransformed, FIG. 5",improved sustained attention more markedly than low doses of d-amphetamine
same,Sustained attention following transformation,[1],significant improvement
same,Body weight gain,Rats,dose-related reductions
same,Water intake,Rats,little effect
same,Food intake,Rats,decreased food intake over the first 1-2 days only
same,General activity level,Wistar Kyoto Rat (WKY),unaffected
same,Impulsiveness,Wistar Kyoto Rat (WKY),unaffected
same,Potency in releasing NA from cortex compared with DA from striatum,[2],considerably more potent at releasing NA from cortex than DA from striatum
